Values quoted from earlier work in patent US12403291B2, “Submucosal bioresorbable drug eluting platform” (Intersect ENT, Inc., priority 2019, dated 2025).

Details: MF per gram of tissue

For C[C@@H]1C[C@H]2[C@@H]3CCC4=CC(=O)C=C[C@]4(C)[C@@]3(Cl)[C@@H](O)C[C@]2(C)[C@@]1(OC(=O)c1ccco1)C(=O)CCl [Mometasone furoate, mometasone furoate], the “concentration level of therapeutic effectiveness” value is listed as 0.1 µg/g.
